# From US12528801B2 (Givaudan SA, priority 2019, dated 2026)
# Target: T1, hTRPM8 (Homo sapiens, UniProt Q7Z2W7)
# T1 construct: expressed in transfected cells
# Experiment: Assay on TRPM8 modulators: calcium imaging (Fluo-4, Flexstation) in HEK293 cell line stably expressing hTRPM8
# Type: cell-based
# Settings: HEK293 cells stably expressing hTRPM8; calcium influx, Fluo-4, Flexstation 3; sigmoidal dose-response fit
# Method: A HEK293 cell line stably expressing hTRPM8 was generated according to Klein of at, (Chem. Senses 36: […], 2011) and receptor activation was monitored by calcium imaging in a Flexstation. For Ca-imaging assays of TRPM8 channel activation, cells were seeded on day 0 at a density of 12000 cells per well in Dulbecco's modified Eagle medium (DMEM) containing 9% foetal bovine serum in black, clear bottom 96-well plates that had been coated with 0.001% polyethyleneimine (molecular weight=60 000, Acros Organics). On day 2, agonists were evaluated via calcium imaging using Fluo-4. Briefly, growth medium was discarded, and the cells were incubated in the dark for 1 h at 37° C. in 50 μL loading buffer consisting of 2.7 μM Fluo-4 AM (Invitrogen) and […] probenecid (Sigma-Aldrich) in DMEM (without serum). After incubation, the plates were washed five times with 100 μL of assay buffer (in mM: 130 NaCl, 5 KCl, 10 HEPES, 2 CaCl2, and 10 glucose, pH7.4.) and further incubated in the dark at room temperature for 30 min. The cells were then washed five times with 100 μL assay buffer and then calcium influx to serial dilutions of inventive compounds were measured in a Flexstation 3 (Molecular Devices). Receptor activation was initiated following addition of 20 μl of a 10-fold concentrated ligand stock solution, which is also prepared in assay buffer. Fluorescence was continuously monitored for 15 seconds prior to ligand addition and for 105 seconds after ligand addition, for a total of 120 seconds. Maximal receptor activation in relation to solvent control and relative to 31.6 μM menthol is determined. Data from serial dilutions were processed with a KNIME workflow to fit a sigmoidal dose-response curve and to extrapolate […].
# T1 sequence (Q7Z2W7 whole entry): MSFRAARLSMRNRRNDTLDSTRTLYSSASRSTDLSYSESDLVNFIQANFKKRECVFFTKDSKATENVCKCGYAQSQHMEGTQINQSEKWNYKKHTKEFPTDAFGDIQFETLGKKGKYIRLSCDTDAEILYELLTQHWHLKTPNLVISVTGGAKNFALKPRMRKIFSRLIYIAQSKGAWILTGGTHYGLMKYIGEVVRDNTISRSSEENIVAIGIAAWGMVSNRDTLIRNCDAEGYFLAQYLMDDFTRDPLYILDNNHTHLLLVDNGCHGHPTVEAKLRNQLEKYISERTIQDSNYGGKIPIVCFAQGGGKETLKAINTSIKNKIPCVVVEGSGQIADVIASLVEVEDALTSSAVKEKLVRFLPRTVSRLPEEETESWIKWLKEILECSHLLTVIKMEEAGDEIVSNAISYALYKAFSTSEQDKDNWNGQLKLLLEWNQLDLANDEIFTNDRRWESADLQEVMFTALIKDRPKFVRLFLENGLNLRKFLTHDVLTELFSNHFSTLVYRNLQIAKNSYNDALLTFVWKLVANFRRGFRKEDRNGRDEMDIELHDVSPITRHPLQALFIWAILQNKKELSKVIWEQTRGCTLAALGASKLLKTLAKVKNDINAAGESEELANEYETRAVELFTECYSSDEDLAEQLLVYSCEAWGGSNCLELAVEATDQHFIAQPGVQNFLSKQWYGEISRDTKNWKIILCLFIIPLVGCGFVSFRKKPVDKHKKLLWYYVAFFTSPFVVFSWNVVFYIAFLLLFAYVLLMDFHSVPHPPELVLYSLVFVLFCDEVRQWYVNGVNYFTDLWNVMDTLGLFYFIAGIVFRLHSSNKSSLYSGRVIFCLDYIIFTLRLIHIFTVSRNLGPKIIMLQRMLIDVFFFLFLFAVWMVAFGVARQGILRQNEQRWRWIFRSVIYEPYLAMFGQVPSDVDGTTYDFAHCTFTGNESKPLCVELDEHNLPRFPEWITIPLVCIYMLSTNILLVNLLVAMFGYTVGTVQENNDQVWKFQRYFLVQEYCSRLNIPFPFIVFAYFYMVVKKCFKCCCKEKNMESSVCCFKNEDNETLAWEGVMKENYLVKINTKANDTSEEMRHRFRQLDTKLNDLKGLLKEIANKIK
row,Compound,EC50 [nM]
1,"CSC(C)C(=O)N1CCCCC1c1nc(-c2ccc(CN3CCS(=O)(=O)CC3)cc2)c[nH]1 (stereo not shown) [Compound 30, 1-(2-(4-(4-((1,1-dioxidothiomorpholino)methyl)phenyl)-1H-imidazol-2-yl)piperidin-1-yl)-2-(methylthio)propan-1-one]",1000 to 35000
2,"CSC(C)C(=O)N1CCCCC1c1nc(-c2ccc(C(C)O)cc2)c[nH]1 (stereo not shown) [Compound 31, 1-(2-(4-(4-(1-hydroxyethyl)phenyl)-1H-imidazol-2-yl)piperidin-1-yl)-2-(methylthio)propan-1-one]",50 to 300
3,"CSC(C)C(=O)N1CCCCC1c1nc(-c2ccc(OC(F)F)c(F)c2)c[nH]1 (stereo not shown) [Compound 32, 1-(2-(4-(4-(difluoromethoxy)-3-fluorophenyl)-1H-imidazol-2-yl)piperidin-1-yl)-2-(methylthio)propan-1-one]",< 50
4,CSC(C)C(=O)N1CCCCC1c1nc(-c2cscc2C(F)F)c[nH]1 (stereo not shown) [Compound 33],50 to 300
5,"CSC(C)C(=O)N1CCCCC1c1nc(-c2ccc(S(C)(=O)=O)cc2)c[nH]1 (stereo not shown) [Compound 34, 1-(2-(4-(4-(methylsulfonyl)phenyl)-1H-imidazol-2-yl)piperidin-1-yl)-2-(methylthio)propan-1-one]",1000 to 35000
6,CSC(C)C(=O)N1CCCCC1c1nc(-c2ccc(S(C)(=O)=O)cc2)c[nH]1 (stereo not shown) [Compound 35],1000 to 35000
7,"CSC(C)C(=O)N1CCCCC1c1nc(-c2ccc(C3CCC3)cc2)c[nH]1 (stereo not shown) [Compound 36, 1-(2-(4-(4-cyclobutylphenyl)-1H-imidazol-2-yl)piperidin-1-yl)-2-(methylthio)propan-1-one]",< 50
8,"CSC(C)C(=O)N1CCCCC1c1nc(-c2ccc(C3CC3)cc2F)c[nH]1 (stereo not shown) [Compound 37, 1-(2-(4-(4-cyclopropyl-2-fluorophenyl)-1H-imidazol-2-yl)piperidin-1-yl)-2-(methylthio)propan-1-one]",< 50
9,"CSC(C)C(=O)N1CCCCC1c1nc(-c2ccc(F)cc2)c[nH]1 (stereo not shown) [Compound 38, 1-(2-(4-(4-fluorophenyl)-1H-imidazol-2-yl)piperidin-1-yl)-2-(methylthio)propan-1-one]",< 50
10,"CSC(C)C(=O)N1CCCCC1c1nc(-c2ccc(O)cc2)c[nH]1 (stereo not shown) [Compound 39, 1-(2-(4-(4-hydroxyphenyl)-1H-imidazol-2-yl)piperidin-1-yl)-2-(methylthio)propan-1-one]",< 50
11,"CSC(C)C(=O)N1CCCCC1c1nc(-c2ccc(C(C)C)cc2)c[nH]1 (stereo not shown) [Compound 40, 1-(2-(4-(4-isopropylphenyl)-1H-imidazol-2-yl)piperidin-1-yl)-2-(methylthio)propan-1-one]",< 50
12,"CSC(C)C(=O)N1CCCCC1c1nc(-c2ccc(C)c(C(F)(F)F)c2)c[nH]1 (stereo not shown) [Compound 41, 1-(2-(4-(4-methyl-3-(trifluoromethyl)phenyl)-1H-imidazol-2-yl)piperidin-1-yl)-2-(methylthio)propan-1-one]",50 to 300
13,"CSC(C)C(=O)N1CCCCC1c1nc(-c2ccc(CN(C)C)s2)c[nH]1 (stereo not shown) [Compound 42, 1-(2-(4-(5-((dimethylamino)methyl)thiophen-2-yl)-1H-imidazol-2-yl)piperidin-1-yl)-2-(methylthio)propan-1-one]",1000 to 35000
14,"CSC(C)C(=O)N1CCCCC1c1nc(-c2ccc(C)o2)c[nH]1 (stereo not shown) [Compound 43, 1-(2-(4-(5-methylfuran-2-yl)-1H-imidazol-2-yl)piperidin-1-yl)-2-(methylthio)propan-1-one]",< 50
15,"CSC(C)C(=O)N1CCCCC1c1nc(-c2cncc(C)c2)c[nH]1 (stereo not shown) [Compound 44, 1-(2-(4-(5-methylpyridin-3-yl)-1H-imidazol-2-yl)piperidin-1-yl)-2-(methylthio)propan-1-one]",50 to 300
16,"CSC(C)C(=O)N1CCCCC1c1nc(-c2ccc(C)nc2)c[nH]1 (stereo not shown) [Compound 45, 1-(2-(4-(6-methylpyridin-3-yl)-1H-imidazol-2-yl)piperidin-1-yl)-2-(methylthio)propan-1-one]",< 50
17,"CSC(C)C(=O)N1CCCCC1c1nc(-c2ccc3ccsc3c2)c[nH]1 (stereo not shown) [Compound 46, 1-(2-(4-(benzo[b]thiophen-6-yl)-1H-imidazol-2-yl)piperidin-1-yl)-2-(methylthio)propan-1-one]",< 50
18,"CSC(C)C(=O)N1CCCCC1c1nc(C)c(-c2ccccc2)[nH]1 (stereo not shown) [Compound 47, 1-(2-(4-methyl-5-phenyl-1H-imidazol-2-yl)piperidin-1-yl)-2-(methylthio)propan-1-one]",50 to 300
19,"O=C(CSC(F)(F)F)N1CCCCC1c1nc(-c2ccccc2)c[nH]1 (stereo not shown) [Compound 48, 1-(2-(4-phenyl-1H-imidazol-2-yl)piperidin-1-yl)-2-((trifluoromethyl)thio)ethan-1-one]",1000 to 35000

row,Compound,EC50 [nM]
1,"CCCC(=O)N1CCCCC1c1nc(-c2ccccc2)c[nH]1 (stereo not shown) [Compound 49, 1-(2-(4-phenyl-1H-imidazol-2-yl)piperidin-1-yl)butan-1-one]",300 to 1000
2,"C=CC=CCC(=O)N1CCCCC1c1nc(-c2ccccc2)c[nH]1 (stereo not shown) [Compound 50, 1-(2-(4-phenyl-1H-imidazol-2-yl)piperidin-1-yl)hexa-3,5-dien-1-one]",1000 to 35000
3,"C=CCCC(=O)N1CCCCC1c1nc(-c2ccccc2)c[nH]1 (stereo not shown) [Compound 51, 1-(2-(4-phenyl-1H-imidazol-2-yl)piperidin-1-yl)pent-4-en-1-one]",300 to 1000
4,"CCC(=O)N1CCCCC1c1nc(-c2ccccc2)c[nH]1 (stereo not shown) [Compound 52, 1-(2-(4-phenyl-1H-imidazol-2-yl)piperidin-1-yl)propan-1-one]",1000 to 35000
5,"CSC(C)C(=O)N1CCCCC1c1ncc(-c2cccc(F)c2F)[nH]1 (stereo not shown) [Compound 53, 1-(2-(5-(2,3-difluorophenyl)-1H-imidazol-2-yl)piperidin-1-yl)-2-(methylthio)propan-1-one]",50 to 300
6,"CSC(C)C(=O)N1CCCCC1c1ncc(-c2ccc(F)cc2F)[nH]1 (stereo not shown) [Compound 54, 1-(2-(5-(2,4-difluorophenyl)-1H-imidazol-2-yl)piperidin-1-yl)-2-(methylthio)propan-1-one]",< 50
7,"CSC(C)C(=O)N1CCCCC1c1ncc(-c2cc(F)ccc2F)[nH]1 (stereo not shown) [Compound 55, 1-(2-(5-(2,5-difluorophenyl)-1H-imidazol-2-yl)piperidin-1-yl)-2-(methylthio)propan-1-one]",< 50
8,"COc1ccc(-c2cnc(C3CCCCN3C(=O)C(C)SC)[nH]2)c(F)c1 (stereo not shown) [Compound 56, 1-(2-(5-(2-fluoro-4-methoxyphenyl)-1H-imidazol-2-yl)piperidin-1-yl)-2-(methylthio)propan-1-one]",< 50
9,"CSC(C)C(=O)N1CCCCC1c1ncc(-c2ccc(C)cc2F)[nH]1 (stereo not shown) [Compound 57, 1-(2-(5-(2-fluoro-4-methylphenyl)-1H-imidazol-2-yl)piperidin-1-yl)-2-(methylthio)propan-1-one]",< 50
10,"COc1ncc(-c2cnc(C3CCCCN3C(=O)C(C)SC)[nH]2)cn1 (stereo not shown) [Compound 58, 1-(2-(5-(2-methoxypyrimidin-5-yl)-1H-imidazol-2-yl)piperidin-1-yl)-2-(methylthio)propan-1-one]",300 to 1000
11,"CNc1cccc(-c2cnc(C3CCCCN3C(=O)C(C)SC)[nH]2)c1 (stereo not shown) [Compound 59, 1-(2-(5-(3-(methylamino)phenyl)-1H-imidazol-2-yl)piperidin-1-yl)-2-(methylthio)propan-1-one]",50 to 300
12,"CSC(C)C(=O)N1CCCCC1c1ncc(-c2ccc(F)c(F)c2)[nH]1 (stereo not shown) [Compound 60, 1-(2-(5-(3,4-difluorophenyl)-1H-imidazol-2-yl)piperidin-1-yl)-2-(methylthio)propan-1-one]",< 50
13,"C=CC(C)C(=O)N1CCCCC1c1ncc(-c2ccc(F)c(F)c2)[nH]1 (stereo not shown) [Compound 61, 1-(2-(5-(3,4-difluorophenyl)-1H-imidazol-2-yl)piperidin-1-yl)-2-methylbut-3-en-1-one]",< 50
14,"COc1ccc(-c2cnc(C3CCCCN3C(=O)C(C)SC)[nH]2)cc1OC (stereo not shown) [Compound 62, 1-(2-(5-(3,4-dimethoxyphenyl)-1H-imidazol-2-yl)piperidin-1-yl)-2-(methylthio)propan-1-one]",1000 to 35000
15,"CSC(C)C(=O)N1CCCCC1c1ncc(-c2ccc(C)c(C)c2)[nH]1 (stereo not shown) [Compound 63, 1-(2-(5-(3,4-dimethylphenyl)-1H-imidazol-2-yl)piperidin-1-yl)-2-(methylthio)propan-1-one]",< 50
16,"COCc1ccc(-c2cnc(C3CCCCN3C(=O)C(C)SC)[nH]2)cc1F (stereo not shown) [Compound 64, 1-(2-(5-(3-fluoro-4-(methoxymethyl)phenyl)-1H-imidazol-2-yl)piperidin-1-yl)-2-(methylthio)propan-1-one]",50 to 300
17,"CSC(C)C(=O)N1CCCCC1c1ncc(-c2ccc(C)c(F)c2)[nH]1 (stereo not shown) [Compound 65, 1-(2-(5-(3-fluoro-4-methylphenyl)-1H-imidazol-2-yl)piperidin-1-yl)-2-(methylthio)propan-1-one]",< 50
18,"CSC(C)C(=O)N1CCCCC1c1ncc(-c2cccc(F)c2)[nH]1 (stereo not shown) [Compound 66, 1-(2-(5-(3-fluorophenyl)-1H-imidazol-2-yl)piperidin-1-yl)-2-(methylthio)propan-1-one]",< 50
